Assay results as given in US20100160297A1, “COMPOUNDS FOR PIM KINASE INHIBITION AND FOR TREATING MALIGNANCY” (Amnestix, Inc., priority 2008, published 2010).
“Also recorded” adds a separate entry of the source. Structures can show the parent of a compound that is named as a salt.

Key:
PIM-1 kinase = target: T1, PIM-1 kinase (Homo sapiens, UniProt P11309); assay: In vitro assay for PIM-1 kinase inhibition (PIM-1 Kinase Assay Kit, colorimetric ELISA); assay type: biochemical; conditions: for PIM-1 kinase inhibition (result in words): test compound 0.1 to 100 μM, FIG. 1 (1.5 ng PIM-1) and FIG. 2 (2.5 ng PIM-1)
T1 construct: purchased Cell Signaling Technology Inc., Boston, USA
T1 sequence (P11309 whole entry): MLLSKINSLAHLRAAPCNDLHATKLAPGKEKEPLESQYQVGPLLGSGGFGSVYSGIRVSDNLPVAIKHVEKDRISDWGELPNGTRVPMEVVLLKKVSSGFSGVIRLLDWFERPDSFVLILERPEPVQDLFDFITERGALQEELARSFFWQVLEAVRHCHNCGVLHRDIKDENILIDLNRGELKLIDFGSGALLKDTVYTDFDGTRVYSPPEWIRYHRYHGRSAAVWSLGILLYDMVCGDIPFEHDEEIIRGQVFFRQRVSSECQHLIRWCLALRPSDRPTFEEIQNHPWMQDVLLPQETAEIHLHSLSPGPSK
Method: In vitro assays of PIM-1 kinase activity (1.5 ng) in the presence of increasing concentrations of the compounds A, B, C or D were performed as described within example 5. An assay without additional test compound served as positive control for the assay (pos) and an assay without PIM-1 kinase served as negative assay (neg). […] Each assay result was normalized in comparison to the positive control which was defined as 100% activity.
In vitro assays of PIM-1 kinase activity (2.5 ng) in the presence of increasing concentrations of the compound E were performed as described within example 5. An assay without additional test compound served as positive control for the assay (pos) and an assay without PIM-1 kinase served as negative assay (neg). […] Each assay result was normalized in comparison to the positive control which was defined as 100% activity.
The in vitro assay for PIM-1 kinase inhibition was performed using the PIM-1 Kinase Assay Kit (Cell Signaling Technology Inc., Boston, USA) according to the manufacture's instruction. Briefly, 1.5 or 2.5 ng PIM-1 kinase has been dissolved in 50 μl assay buffer (25 mM Tris-Hcl (pH 7.5), 10 mM MgCl2, 5 mM beta-glycerophosphate, 0.1 mM Na3VO4, 2 mM DTT, 200 μM ATP, and 1.5 μM peptide substrate) and test compound has been added to a final concentration in a range of 0.1 to 100 μM. After 30 minutes incubation at ambient temperature the reaction was stopped by adding 50 μl Stop buffer (50 mM EDTA, pH 8) per reaction. An aliquot of 25 μl per reaction was diluted each by 75 μl water and transferred to a 96-well streptavidin-coated plate. After 60 minutes incubation and three times washing with PBS, 100 μl/well primary antibody (Phospho-Bad (Ser112) antibody, 1:1000 diluted in PBS) was added. After further 2 h incubation and three times washing with PBS, an usual colorimetric ELISA assay was performed using a HRP labeled second antibody according to the manufacture's instructions. A PIM kinase reaction without addition of a test compound served as positive control (pos) and an assay without PIM kinase served as negative control (neg). […] The PIM-1 kinase inhibition of the test compounds (1-chloro-5-([1,4]diazepane-1-sulfonyl)-8-propoxy-isoquinoline (compound A), 1-chloro-5-(piperazin-1-sulfonyl)-8-methoxy-isoquinoline (compound B), 1-methyl-5-([1,4]diazepane-1-sulfonyl)-8-methoxy-isoquinoline (compound C), and 1-chloro-5-([1,4]diazepane-1-sulfonyl)-6-methoxy-isoquinoline (compound D)) was measured in a first series of assays, and the one of the compound 5-([1,4]diazepane-1-sulfonyl)-8-methoxy-isoquinoline (compound E) was measured in a second series of assays. Within each series of assays the measured PIM-1 kinase activity was normalized in comparison to the positive control (pos) which was defined as 100% activity. […] The table below summarizes the percentage of the remaining PIM-1 kinase activity in the presence of the test compounds in a final concentration of 100 μM.

Compound	PIM-1 kinase inhibition (result in words) (PIM-1 kinase)	melting point [°C]	% remaining PIM-1 kinase activity (PIM-1 kinase; test compound 100 μM final concentration, normalized to positive control (no test compound) = 100% activity, 1.5 or 2.5 ng PIM-1 kinase, 200 μM ATP) [%]
COc1ccc2c(Cl)nccc2c1S(=O)(=O)N1CCCNCC1 [D, 1-chloro-5-([1,4]diazepane-1-sulfonyl)-6-methoxy-isoquinoline]	potent PIM inhibitory effect; also recorded: potent PIM-1 kinase inhibitors		
CCCOc1ccc(S(=O)(=O)N2CCCNCC2)c2ccnc(Cl)c12 [Compound A, 1-chloro-5-([1,4]diazepane-1-sulfonyl)-8-propoxy-isoquinoline]	potent PIM inhibitory effect; also recorded: potent PIM-1 kinase inhibitors		
COc1ccc2c(Cl)nccc2c1S(=O)(=O)N1CCCNCC1 (as salt: hydrochloride) [1-chloro-5-([1,4]diazepane-1-sulfonyl)-6-methoxy-isoquinoline]		219 to 221	
COc1ccc(S(=O)(=O)N2CCCNCC2)c2ccnc(C)c12 [C, 1-methyl-5-([1,4]diazepane-1-sulfonyl)-8-methoxy-isoquinoline]	potent PIM inhibitory effect; also recorded: potent PIM-1 kinase inhibitors		
O=S(=O)(c1cccc2cnccc12)N1CCCNCC1 [F, Fasudil, reference compound]	at the most very weak PIM-1 inhibition		
COc1ccc(S(=O)(=O)N2CCCNCC2)c2ccnc(Cl)c12 [G, 1-chloro-8-methoxy-Fasudil, reference compound]	very potent PIM-1 inhibitor		17
COc1ccc(S(=O)(=O)N2CCNCC2)c2ccnc(Cl)c12 [B, 1-chloro-5-(piperazin-1-sulfonyl)-8-methoxy-isoquinoline]	potent PIM inhibitory effect; also recorded: potent PIM-1 kinase inhibitors		
COc1ccc(S(=O)(=O)N2CCCNCC2)c2ccncc12 [E, 5-([1,4]diazepane-1-sulfonyl)-8-methoxy-isoquinoline]	at most a moderate PIM-1 kinase inhibition; also recorded: only weak PIM inhibitory effect		
